Values of other authors, collected in paper PMC3387528 (Journal of the American Chemical Society, 2011).

How the values were obtained:
dsDNA = conditions: substrate dsDNA; no coreagents; pH 7.0, 37 °C; ref [22]
[1] = tested on: ApA (adenylyl(3′-5′)adenosine); conditions: substrate ApA; no coreagents; pH 7.2, 30 °C; ref [28]

| Compound | k2, expressed as kcat/KM (dsDNA) | k2, second-order rate constant [1] [M⁻¹ min⁻¹] |
| --- | --- | --- |
| [Eu+3] [Eu^3+] | 108 ^b M^−1 min^−1 |  |
| [Cl][Lu]([Cl])[Cl] [LuCl3] |  | 38 |
